Experimental data taken from PubChem BioAssay AID330 (DTP/NCI, 2004).
“And” between values parts separate entries of the source, which are not always exact repeats. Identical values can stand only once. Inconclusive results and toxic doses are left out. The calls were made as follows: active = survival T/C of 150% or more; inactive = T/C below 125% in these data.

System: P388 leukemia ip, CD2F1 mice, survival T/C
Test: NCI In Vivo Anticancer Drug Screen. Data for tumor model P388 Leukemia (intraperitoneal) in CD2F1 (CDF1) mice
Conditions: endpoint: median survival time, higher = longer survival
Method in brief: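 Mice carrying the transplanted tumor received test compound or vehicle. Survival was recorded in each group, and the value is the treated-group measurement divided by that of the vehicle-treated control group.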

[1] = dose: 100.0 mg/kg/injection, schedule: Q01DX001 (ip), vehicle: saline with Tween-80
[2] = dose: 200.0 mg/kg/injection, schedule: Q01DX001 (ip), vehicle: saline with Tween-80
[3] = dose: 50.0 mg/kg/injection, schedule: Q01DX005 (ip), vehicle: saline with Tween-80
[4] = dose: 100.0 mg/kg/injection, schedule: Q01DX005 (ip), vehicle: saline with Tween-80
[5] = dose: 200.0 mg/kg/injection, schedule: Q01DX005 (ip), vehicle: saline with Tween-80
[6] = dose: 60.0 mg/kg/injection, schedule: Q01DX005 (ip), vehicle: saline with Tween-80
[7] = dose: 120.0 mg/kg/injection, schedule: Q01DX005 (ip), vehicle: saline with Tween-80
[8] = dose: 240.0 mg/kg/injection, schedule: Q01DX005 (ip), vehicle: saline with Tween-80
[9] = dose: 100.0 mg/kg/injection, schedule: Q01DX001 (ip), vehicle: saline
[10] = dose: 200.0 mg/kg/injection, schedule: Q01DX001 (ip), vehicle: saline
[11] = dose: 400.0 mg/kg/injection, schedule: Q01DX001 (ip), vehicle: saline
[12] = dose: 50.0 mg/kg/injection, schedule: Q01DX009 (ip), vehicle: saline with Tween-80
[13] = dose: 100.0 mg/kg/injection, schedule: Q01DX009 (ip), vehicle: saline with Tween-80
[14] = dose: 200.0 mg/kg/injection, schedule: Q01DX009 (ip), vehicle: saline with Tween-80

Measured: T/C

CCCCCCC(CCC1CCCCC1)C(=O)O (centres undefined)
inactive: dose: 50.0 mg/kg/injection, schedule: Q01DX001 (ip), vehicle: saline with Tween-80 109 % of control | [1] 109 % of control | [2] 100 % of control

COC(=O)C1=NNC(C(=O)OC)=C(c2ccccc2)C(c2ccccc2)=N1
inactive: dose: 25.0 mg/kg/injection, schedule: Q01DX009 (ip), vehicle: Klucel (hydroxypropylcellulose) (HPC) 89 % of control | dose: 50.0 mg/kg/injection, schedule: Q01DX009 (ip), vehicle: Klucel (hydroxypropylcellulose) (HPC) 90 % of control | dose: 100.0 mg/kg/injection, schedule: Q01DX009 (ip), vehicle: Klucel (hydroxypropylcellulose) (HPC) 93 % of control | dose: 200.0 mg/kg/injection, schedule: Q01DX009 (ip), vehicle: Klucel (hydroxypropylcellulose) (HPC) 98 % of control | dose: 400.0 mg/kg/injection, schedule: Q01DX009 (ip), vehicle: Klucel (hydroxypropylcellulose) (HPC) 106 % of control

Cc1ccc(S(=O)(=O)Oc2ccc3c(/C=C/[N+](=O)[O-])cn(C)c3c2)cc1
inactive: dose: 50.0 mg/kg/injection, schedule: Q01DX001 (ip), vehicle: Klucel (hydroxypropylcellulose) (HPC) 90 % of control | dose: 100.0 mg/kg/injection, schedule: Q01DX001 (ip), vehicle: Klucel (hydroxypropylcellulose) (HPC) 86 % of control | dose: 200.0 mg/kg/injection, schedule: Q01DX001 (ip), vehicle: Klucel (hydroxypropylcellulose) (HPC) 101 % of control

CC1=NCCN1CCNC(=O)c1ccc(C(=O)NCCN2CCN=C2C)cc1
inactive: dose: 1.88 mg/kg/injection, schedule: Q01DX005 (ip), vehicle: saline with Tween-80 105 % of control | dose: 3.75 mg/kg/injection, schedule: Q01DX005 (ip), vehicle: saline with Tween-80 100 % of control | dose: 7.5 mg/kg/injection, schedule: Q01DX005 (ip), vehicle: saline with Tween-80 100 % of control and 115 % of control

C=CCc1cc2c(cc1C(C)c1ccc(OC)cc1)OCO2 (centres undefined)
inactive: [3] 106 % of control | [4] 109 % of control | [5] 117 % of control

NC(=O)CCCCCOc1ccc(OC2OC(CO)C(O)C(O)C2O)cc1 (centres undefined)
inactive: dose: 100.0 mg/kg/injection, schedule: Q04DX002 (ip), vehicle: saline with Tween-80 100 % of control | dose: 200.0 mg/kg/injection, schedule: Q04DX002 (ip), vehicle: saline with Tween-80 102 % of control | dose: 400.0 mg/kg/injection, schedule: Q04DX002 (ip), vehicle: saline with Tween-80 104 % of control

C=C1C(=O)OC2CC3(C)C=CC(=O)C(=C)C3CC12 (centres undefined)
inactive: dose: 12.5 mg/kg/injection, schedule: Q04DX003 (ip), vehicle: Klucel (hydroxypropylcellulose) (HPC) 104 % of control | dose: 25.0 mg/kg/injection, schedule: Q04DX003 (ip), vehicle: Klucel (hydroxypropylcellulose) (HPC) 114 % of control

CCO/C=C1\SC(=S)N(c2ccco2)C1=O
inactive: dose: 100.0 mg/kg/injection, schedule: Q04DX003 (ip), vehicle: saline with Tween-80 118 % of control | dose: 200.0 mg/kg/injection, schedule: Q04DX003 (ip), vehicle: saline with Tween-80 118 % of control | dose: 400.0 mg/kg/injection, schedule: Q04DX003 (ip), vehicle: saline with Tween-80 104 % of control

COc1cc(C2c3cc4c(cc3OC(C)(OC)C2C(C)=O)OCO4)cc(OC)c1OC (centres undefined)
inactive: [6] 90 % of control | [7] 94 % of control | [8] 95 % of control

COc1cc2c(cc1OC)C(c1cccc(Cl)c1)=NN=C(C)C2
inactive: dose: 60.0 mg/kg/injection, schedule: Q01DX005 (ip), vehicle: Klucel (hydroxypropylcellulose) (HPC) 105 % of control | dose: 120.0 mg/kg/injection, schedule: Q01DX005 (ip), vehicle: Klucel (hydroxypropylcellulose) (HPC) 101 % of control | dose: 240.0 mg/kg/injection, schedule: Q01DX005 (ip), vehicle: Klucel (hydroxypropylcellulose) (HPC) 96 % of control

O=C1C(CBr)(CBr)CCC12CN=C(Br)C2 (centres undefined)
inactive: [3] 100 % of control | [4] 98 % of control | [5] 100 % of control

Cc1ccc2c(c1)CN(C)c1ccc(C)cc1CN2C
inactive: [6] 98 % of control | [7] 100 % of control | [8] 98 % of control

COC1OC(CO)C(O)C2OCCOCCOC3C(OC)OC(CO)C(O)C3OCCOCCOC12 (centres undefined)
inactive: dose: 60.0 mg/kg/injection, schedule: Q01DX005 (ip), vehicle: saline 103 % of control | dose: 120.0 mg/kg/injection, schedule: Q01DX005 (ip), vehicle: saline 101 % of control | dose: 240.0 mg/kg/injection, schedule: Q01DX005 (ip), vehicle: saline 97 % of control

O=C1c2ccccc2C(Cl)(c2ccc(Cl)cc2)c2ccc(Cl)cc21 (centres undefined)
inactive: dose: 25.0 mg/kg/injection, schedule: Q01DX005 (ip), vehicle: saline with Tween-80 107 % of control

CSP(C)(=O)CCC(C)=O (centres undefined)
inactive: dose: 25.0 mg/kg/injection, schedule: Q01DX001 (ip), vehicle: saline 100 % of control | dose: 50.0 mg/kg/injection, schedule: Q01DX001 (ip), vehicle: saline 100 % of control | [9] 102 % of control

Cc1cccn2cc(CC(=O)O)nc12
inactive: [9] 105 % of control | [10] 104 % of control | [11] 109 % of control

COc1cc(C(Nc2ccccn2)c2cc3c(cc2O)OCO3)cc(OC)c1OC (centres undefined)
inactive: [6] 100 % of control | [7] 94 % of control | [8] 94 % of control

Cc1nnc(NN=O)nc1C
inactive: dose: 3.12 mg/kg/injection, schedule: Q01DX009 (ip), vehicle: water 96 % of control | dose: 6.25 mg/kg/injection, schedule: Q01DX009 (ip), vehicle: water 100 % of control | dose: 12.5 mg/kg/injection, schedule: Q01DX009 (ip), vehicle: water 105 % of control and 98 % of control | dose: 25.0 mg/kg/injection, schedule: Q01DX009 (ip), vehicle: water 104 % of control and 106 % of control | dose: 50.0 mg/kg/injection, schedule: Q01DX009 (ip), vehicle: water 99 % of control and 101 % of control and 105 % of control | dose: 100.0 mg/kg/injection, schedule: Q01DX009 (ip), vehicle: water 96 % of control

C=C1C(=O)C23C(O)C1CCC2C12COC3(O)C(O)C1C(C)(C)CCC2OC(C)=O (centres undefined)
inactive: dose: 10.0 mg/kg/injection, schedule: Q01DX009 (ip), vehicle: saline with Tween-80 117 % of control | dose: 20.0 mg/kg/injection, schedule: Q01DX009 (ip), vehicle: saline with Tween-80 117 % of control | dose: 25.0 mg/kg/injection, schedule: Q01DX009 (ip), vehicle: saline with Tween-80 110 % of control

O=c1[nH]c2ccccc2n1CCCN1CCN(C(c2ccccc2)c2ccccc2)CC1
inactive: [12] 102 % of control | [13] 94 % of control | [14] 95 % of control

COC(=O)C1C2CCC1C2 (centres undefined)
inactive: dose: 25.0 mg/kg/injection, schedule: Q01DX009 (ip), vehicle: other 97 % of control | dose: 50.0 mg/kg/injection, schedule: Q01DX009 (ip), vehicle: other 110 % of control | dose: 100.0 mg/kg/injection, schedule: Q01DX009 (ip), vehicle: other 105 % of control | dose: 200.0 mg/kg/injection, schedule: Q01DX009 (ip), vehicle: other 107 % of control | dose: 400.0 mg/kg/injection, schedule: Q01DX009 (ip), vehicle: other 110 % of control

Cn1c(=O)ccc2c(=O)c3cc(Br)ccc3oc21
inactive: [1] 98 % of control | [2] 107 % of control | dose: 400.0 mg/kg/injection, schedule: Q01DX001 (ip), vehicle: saline with Tween-80 96 % of control

O=C(/C=C/c1ccc(O)c(O)c1)NCC(=O)NC(Cc1ccccc1)C(=O)O (centres undefined)
inactive: [3] 99 % of control | [4] 100 % of control | [5] 103 % of control

CS(=O)(=O)CCCCCCCCCCS(C)(=O)=O
inactive: [9] 95 % of control | [10] 100 % of control | [11] 93 % of control

O=[N+]([O-])c1cc([N+](=O)[O-])c(Cl)s1
inactive: dose: 6.25 mg/kg/injection, schedule: Q01DX009 (ip), vehicle: saline with Tween-80 104 % of control | dose: 12.5 mg/kg/injection, schedule: Q01DX009 (ip), vehicle: saline with Tween-80 100 % of control

O=C(Nc1n[nH]c(NC(=O)c2ccccc2)n1)c1ccccc1
inactive: dose: 50.0 mg/kg/injection, schedule: Q01DX005 (ip), vehicle: Klucel (hydroxypropylcellulose) (HPC) 92 % of control | dose: 100.0 mg/kg/injection, schedule: Q01DX005 (ip), vehicle: Klucel (hydroxypropylcellulose) (HPC) 88 % of control

CCC(C)C(NC=O)C(=O)O (centres undefined)
inactive: [3] 93 % of control | [4] 100 % of control | [5] 100 % of control

O=C(NCCNCCO)c1cccc(Nc2cc(O)c(O)c3ccccc23)c1
inactive: [3] 108 % of control | [4] 100 % of control | [5] 97 % of control

Cc1ccc(S(=O)(=O)N/N=C/C(C)c2cccnc2)cc1 (centres undefined)
inactive: [12] 105 % of control | [13] 99 % of control | [14] 107 % of control
